Results: patent publication US10265692B2, “Ex vivo methods for predicting and confirming in vivo metabolism of pharmaceutically active compounds” (Empiriko Corporation, priority 2013, dated 2019)

Columns and labels:
[1] = Furosemide oxidation by conventional method with octabromo tetrakis(2,6-dichlorophenyl)porphyrin Fe(III)Cl and hydrogen peroxide, with or without imidazole co-catalyst, metabolites by LC/MS-ESI; type: in vitro ADME; conditions: DMSO, H2O2, 24 hours; for furosemide metabolites produced, Imidazole Co-Catalyst: with imidazole co-catalyst; for furosemide metabolites produced, No Co-Catalyst: control without imidazole
Description: Furosemide API (12.5 mg, 0.0378 mmol) in DMSO (0.1 M) was added to octabromo tetrakis(2,6-dichlorophenyl)porphyrin Fe(III)Cl (0.6 mg, 0.000378 mmol), followed by imidazole (0.13 mg, 0.00189 mmol). Over a 1 hour period, 50% w/w hydrogen peroxide (6.44 uL, […]) was added dropwise. An additional amount of hydrogen peroxide was added after 2 hours. The reaction was monitored by LC and stopped after 24 hours.
A control reaction was run under the exact parameters as stated above, without the addition of imidazole as a co-catalyst.
Samples analyzed according to parameters in Example 1.

[2] = Ex vivo prediction of drug-to-drug interaction: microwave oxidation of drug mixtures with Octabromo tetrakis(2,6-dichlorophenyl)porphyrin Fe(III)Cl and sodium hypochlorite, metabolites by LC/MS; conditions: saxagliptin reacted in mixture with Metformin, porphyrin Fe(III)Cl catalyst, NaOCl
Description: Metformin and Saxagliptin Mixture Microwave Protocol: Metformin Hydrochloride (8.19 mg, 0.06341 mmol) in 1:0.25 mL acetonitrile:water was reacted with potassium carbonate (10.96 mg, 0.07926) and stirred at 40° C. for 30 minutes in a microwave tube. Saxagliptin API (20.0 mg, 0.06341 mmol) extracted using 40 mL 1:1 methanol:ethanol, filtered and concentrated in vacuo. The resulting solid taken up in 2:0.25 mL acetonitrile:water and transferred to microwave tube. Octabromo tetrakis(2,6-dichlorophenyl)porphyrin Fe(III)Cl (10.21 mg, 0.006341 mmol) then added, followed by sodium hypochlorite (156.6 uL, 0.3171 mmol). Reaction run in the microwave at 80° C. for 30 minutes (CC-03-149A).

furosemide metabolites produced, Imidazole Co-Catalyst [1]	furosemide metabolites produced, No Co-Catalyst [1]	Presence of Saxagliptin metabolites [2]	Compound
Present	–	–	NS(=O)(=O)c1cc2c(cc1Cl)[N+]1(O)CC(=O)C(O)C(=O)C1OC2=O (stereo not shown) [FUR4]
Present	–	–	NS(=O)(=O)c1cc2c(cc1Cl)[N+]1([O-])CC(=O)C=CC1OC2=O (stereo not shown) [FUR5]
Present	Present	–	Nc1cc(Cl)c(S(N)(=O)=O)cc1C(=O)O [FUR3]
–	–	Not Detected	N#C[C@@H]1C[C@@H]2C[C@@H]2N1C(=O)C(N)C12CC3CC(O)(CC(O)(C3)C1)C2 (stereo partly shown) [Hydroxy-Saxagliptin]
Present	Present	–	NS(=O)(=O)c1cc2c(cc1Cl)N1CC(=O)C=CC1OC2=O (stereo not shown) [FUR1]
Present	–	–	NS(=O)(=O)c1cc(C(=O)O)c(NCC(=O)CCC(=O)O)cc1Cl [FUR6]
Present	Present	–	NS(=O)(=O)c1cc(C(=O)[O-])c(-[n+]2cccc(O)c2)cc1Cl [FUR2]
